Measurements published in PMC10223062, “Discovery of Novel Thiophene/Hydrazones: In Vitro and In Silico Studies against Pancreatic Cancer” (Pharmaceutics, 2023).

Experiments:
COX-2 = biological target: T1, COX-2 (Homo sapiens, UniProt P35354); assay: Fluorometric COX-2 inhibitor screening kit; settings: for COX-2 Percent of İnhibition: at 10 µM; for IC50: COX-2 IC50
T1 sequence (P35354 18-604): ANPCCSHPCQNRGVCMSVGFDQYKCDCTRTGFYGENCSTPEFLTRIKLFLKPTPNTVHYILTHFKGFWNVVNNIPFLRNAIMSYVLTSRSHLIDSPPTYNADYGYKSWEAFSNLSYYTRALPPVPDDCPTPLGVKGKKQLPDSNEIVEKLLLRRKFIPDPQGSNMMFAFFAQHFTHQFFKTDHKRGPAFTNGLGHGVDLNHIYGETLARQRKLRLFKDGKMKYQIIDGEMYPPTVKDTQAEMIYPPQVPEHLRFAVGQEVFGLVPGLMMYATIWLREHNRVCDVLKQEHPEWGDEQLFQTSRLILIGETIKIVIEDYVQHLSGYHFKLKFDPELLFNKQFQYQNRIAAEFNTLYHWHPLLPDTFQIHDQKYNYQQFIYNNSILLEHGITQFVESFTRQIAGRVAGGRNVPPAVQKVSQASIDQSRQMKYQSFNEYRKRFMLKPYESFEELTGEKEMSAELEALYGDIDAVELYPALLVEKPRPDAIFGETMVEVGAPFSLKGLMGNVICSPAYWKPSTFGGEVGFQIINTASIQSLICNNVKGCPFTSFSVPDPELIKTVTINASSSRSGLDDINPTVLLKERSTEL
Description: For the determination of COX-1 and COX-2 inhibitory activity, the tested compounds were dissolved in dimethyl sulfoxide (DMSO, 5 mM stock solution) and then diluted with the same solvent to obtain the test solutions. The test solutions were further diluted 5× with COX Assay Buffer (2 µL of test solution: 8 µL COX Assay Buffer). […] Solvent Control (SC) was prepared by adding 2 µL DMSO and 8 µL COX Assay Buffer, while Sample (S) and Enzyme Control (EC) were prepared by adding 10 µL of diluted test solution and COX Assay Buffer, respectively, into assigned wells.

5-LOX = biological target: T2, 5-LOX (Homo sapiens, UniProt P09917); assay: Fluorometric 5-LOX inhibitor screening kit; format: biochemical; settings: for 5-LOX Percent of İnhibition: at 10 µM
T2 construct: purchased MyBioSource
T2 sequence (P09917 1-674): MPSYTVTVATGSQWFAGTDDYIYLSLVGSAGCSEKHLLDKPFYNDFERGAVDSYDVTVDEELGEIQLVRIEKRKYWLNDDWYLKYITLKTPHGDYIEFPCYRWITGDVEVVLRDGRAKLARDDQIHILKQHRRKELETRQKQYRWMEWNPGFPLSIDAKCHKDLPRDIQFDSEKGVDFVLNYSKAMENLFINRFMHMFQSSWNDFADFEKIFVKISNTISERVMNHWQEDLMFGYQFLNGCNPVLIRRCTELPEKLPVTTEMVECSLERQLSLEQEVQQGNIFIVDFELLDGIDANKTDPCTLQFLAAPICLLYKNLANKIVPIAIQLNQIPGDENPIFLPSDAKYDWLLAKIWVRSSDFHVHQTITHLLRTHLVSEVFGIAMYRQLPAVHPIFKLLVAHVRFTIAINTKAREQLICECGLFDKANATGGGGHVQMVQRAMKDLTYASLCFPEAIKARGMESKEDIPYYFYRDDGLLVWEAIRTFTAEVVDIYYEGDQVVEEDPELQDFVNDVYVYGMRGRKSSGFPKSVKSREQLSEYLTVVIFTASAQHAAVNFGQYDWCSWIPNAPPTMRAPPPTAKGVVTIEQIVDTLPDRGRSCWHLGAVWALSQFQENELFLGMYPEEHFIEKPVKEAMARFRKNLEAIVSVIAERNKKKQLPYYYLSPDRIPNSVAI
Description: COX-1 and COX-2 inhibitory activities were tested using fluorometric COX-1 and COX-2 inhibitor screening kits (Abcam, United Kingdom), and the 5-LOX inhibitory activity was tested using a fluorometric 5-LOX inhibitor screening kit (MyBioSource, USA). These assays are based on the fluorometric detection of Prostaglandin G2 (a product generated by the COX enzyme) or on the fluorometric detection of the intermediate generated by the 5-LOX enzyme. The experiments were conducted in accordance with the manufacturers’ instructions.
For the determination of 5-LOX inhibitory activity, tested compounds were dissolved in DMSO (5 mM stock solution) and then diluted with the same solvent to obtain the test solutions. Test solutions were added to wells in an amount of 2 µL in the final 100 µL reaction volume. […] EC, SC, IC, and all test solutions were analyzed in triplicate.

MIA PaCa-2 cell line = assay: 2D anticancer activity, MTT assay; format: cell-based; settings: Homo sapiens, 72 h exposure, read-out: IC50 in 2D cultured MIA PaCa-2 cell line
Description: For the preliminary assessment of anticancer activity in a 2D cell culture system, an MIA PaCa-2 human pancreas epithelial carcinoma (CRL-1420™) cell line (ATCC, Manassas, VA, USA) was cultured in Dulbecco’s Modified Eagle Medium with 10% fetal bovine serum (FBS, v/v) (Gibco, Billings, MT, USA) and supplemented with 1% antibiotics (10,000 μg/mL streptomycin and 10,000 U/mL penicillin) (Gibco, Billings, MT, USA) at 37 °C in a humidified 5% CO2 atmosphere. For the in vitro modeling of the tumor microenvironment, compounds were also tested in a 3D spheroid test system. For this purpose, the MIA PaCa-2 human pancreas epithelial carcinoma (CRL-1420™) cell line and human dermal fibroblast cell line HDF (PCS-201-012) cells were used.
For the assessment of anticancer activity of the compounds, the MIA PaCa-2 cells were plated in 48-well microplates at 1.5 × 10^5 cells/mL and incubated for 24 h at 37 °C in 5% CO2 in accordance with a previously reported method. Following the day, the cells were treated with compounds in various concentrations between 0.1–100 µM dissolved in dimethyl sulfoxide (DMSO) (Sigma Aldrich, St. Louis, MO, USA). Following the 72 h of incubation, culture mediums were discarded and 0.5 mg/mL 3-(4,5-Dimethylthiazol-2-yl)-2,5-Diphenyltetrazolium Bromide (MTT) (Sigma Aldrich, St. Louis, MO, USA) was added to each well for an additional 2 h at 37 °C. After 2 h incubation, the medium was discarded and 100 µL of isopropanol (Sigma Aldrich, St. Louis, MO, USA) was added to the wells to dissolve formazan crystals. The optical density was measured at 570 nm wavelength using a microplate reader (Thermo Fisher Scientific Multiskan, Finland). Doxorubicin hydrochloride (DOX) (European Pharmacopoeia standard, Sigma) was used as internal positive control, and 0.5% DMSO (v/v) was used as negative control. The percentage of cell viability was determined by using the following equation:(1) Viability %=(Absorbancecompound)/(Absorbancenegative control)×100%

Compound	COX-2 Percent of İnhibition (COX-2) [%]	IC50 (5-LOX) [µM]	5-LOX Percent of İnhibition (5-LOX) [%]	melting point [°C]	IC50 (MIA PaCa-2 cell line) [µM]	IC50 (COX-2) [µM]
O=C(N/N=C/c1ccccc1O)c1cc(-c2ccccc2)c(-c2ccccc2)s1 [7a, N’-[(E)-(2-hydroxyphenyl)methylidene]-4,5-diphenylthiophene-2-carbohydrazide]	13.57 ± 0.38	3.78 ± 0.39	64.38 ± 0.46	238	7.51 ± 0.08	
O=C(N/N=C/c1ccc(O)cc1)c1cc(-c2ccccc2)c(-c2ccccc2)s1 [7c, N’-[(E)-(4-hydroxyphenyl)methylidene]-4,5-diphenylthiophene-2-carbohydrazide]	51.97 ± 2.51	2.6 ± 0.11	55.05 ± 1.37	256	42.8 ± 3.59	10.1 ± 0.25
COc1ccccc1/C=N/NC(=O)c1cc(-c2ccccc2)c(-c2ccccc2)s1 [7d, N’-[(E)-(2-methoxyphenyl)methylidene]-4,5-diphenylthiophene-2-carbohydrazide]	16.74 ± 3.36		15.61 ± 0.66	263	9.09 ± 1.04	
COc1cc(/C=N/NC(=O)c2cc(-c3ccccc3)c(-c3ccccc3)s2)ccc1O [7e, N’-[(E)-(3-methoxy-4-hydroxyphenyl)methylidene]-4,5-diphenylthiophene-2-carbohydrazide]	49.41±1.12	3.3 ± 0.07	60.69 ± 0.54	234	> 100	13.9 ± 0.76
COc1ccc(/C=N/NC(=O)c2cc(-c3ccccc3)c(-c3ccccc3)s2)cc1O [7f, N’-[(E)-(3-hydroxy-4-methoxyphenyl)methylidene]-4,5-diphenylthiophene-2-carbohydrazide]	38.41 ± 0.85	2.94 ± 0.2	60.56 ± 2.49	249	4.86 ± 0.19	39 ± 3.41
